Patent US20240165108A1, “NOVEL USE” (GlaxoSmithKline Intellectual Property Development Limited, priority 2022, published 2024)

Legend:
GPR91 [1] = biological target: T1, GPR91 (Homo sapiens, UniProt Q9BXA5); assay: Calcium flux in HEK293; assay type: cell-based; conditions: read-out: Test compound pIC50, Calcium flux in HEK293 (converted)
T1 sequence (Q9BXA5 1-334): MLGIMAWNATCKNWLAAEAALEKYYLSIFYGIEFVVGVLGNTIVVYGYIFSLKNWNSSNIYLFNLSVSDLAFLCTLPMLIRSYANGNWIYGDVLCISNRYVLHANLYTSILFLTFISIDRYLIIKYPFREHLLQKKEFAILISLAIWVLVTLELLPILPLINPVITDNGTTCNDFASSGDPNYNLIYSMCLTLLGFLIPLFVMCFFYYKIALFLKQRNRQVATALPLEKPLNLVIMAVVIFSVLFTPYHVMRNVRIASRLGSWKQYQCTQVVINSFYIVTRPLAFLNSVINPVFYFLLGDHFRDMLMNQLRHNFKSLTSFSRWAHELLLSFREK
Source text: (§1) GPR91 inhibition can be measured according to the art. For example, GPR91 inhibition may be measured by testing a compound in a G-protein functional assay such as Calcium flux, IP1 accumulation and GTPyS. GPR91 inhibition may be measured by testing a compound in phenotypic assays which measures a cytokine response that is relevant to the indication.

human hair follicles [2] = assay: Microscopic hair cycle staging in ex vivo hair follicle organ culture; assay type: cell-based; conditions: for percentage of hair follicles in the anagen phase: donors with healthy hair follicles
Source text: Compounds, at the concentrations indicated, are present throughout the duration of the hair follicle culture at 0.1% DMSO.

human hair follicles [3] = assay: Dermal papilla area and melanin clumping, Fontana-Masson stained ex vivo hair follicles; assay type: cell-based; conditions: for dermal papilla area: healthy hair follicles
Method: Microscopic hair cycle staging: Hair cycle staging is performed at the end of the culture and can be determined according to several established parameters as described previously. Hair follicles are microscopically evaluated for the hair cycle staging using Masson-Fontana histochemistry and Ki-67/TUNEL immunostaining as previously described. […] Melanin clumps are indicated on the images by the orange arrows, and are counted in the Masson-fontana stained section at the end of the culture in a defined region of interest starting at the Auber's line and including the precortical hair matrix as described previously.

human hair follicles [4] = assay: Versican immunofluorescence in dermal papilla of hair follicles; assay type: cell-based; conditions: healthy hair follicles
Source text: Versican immunofluorescence (as previously described in Soma et al J Dermatol Sci 2005, doi: 10.1016/j.jdermsci.2005.03.010) was used to determine hair follicle inductive properties.

human hair follicles [5] = assay: RNA sequencing of ex vivo cultured hair follicles; assay type: cell-based
Method: RNA extraction, sequencing and analysis were performed as follows; RNA from n=2-3 hair follicles per group was extracted using […]® PicoPure® RNA Isolation Kit (ThermoFisher) including a Dnase digestions step using the Rnase-Free Dnase Set from Qiagen and stored at −80 degrees Celsius until analysed. RNA concentration, purity and integrity were assessed before sequencing. Sequencing was performed on a NovaSeq 6000 using 2×100 bp read length with an output of approximately 30 M clusters (6 Gb per sample). Demultiplexing of the sequencing reads was performed with Illumina bcl2fastq (2.20).
Briefly, DESeq2 first creates a pseudo-reference sample (row-wise geometric mean) and calculates the ratio of each sample to this reference. Then, the normalization factor for each sample (size factor) is calculated using the median value of all ratios for a given sample. Normalized count values are created by dividing each raw count value in a given sample by that sample's normalization factor. Finally, DESeq2 calculates p values and adjusted p values for genes of two groups by allowing the shrinkage of the log 2 fold changes when the information for a gene is low (low counts or high dispersion values). For manual calculation of fold change (FC) between two groups, the ratio of the normalized read counts was used. And FC is considered relevant or significant if it is greater of equal to 2 (upregulation) or smaller that or equal to 0.5 (downregulation).

GPR91 [6] = biological target: T1, GPR91; assay: GTPyS G-protein functional assay; assay type: biochemical; set-up: host or cells: LUVA; conditions: read-out: Test compound pIC50, GTPyS (converted)
Source text: as §1

GPR91 [7] = biological target: T1, GPR91; assay: IP1 accumulation; assay type: cell-based; set-up: host or cells: LUVA; conditions: read-out: Test compound pIC50, IP1 (converted)
Source text: as §1

GPR91 [8] = biological target: T1, GPR91; assay: Succinate-stimulated secretion of PGD2 and cytokines/chemokines in LUVA cells; assay type: cell-based; set-up: host or cells: LUVA
Method: After the incubation, the cell suspension was centrifuged, and the supernatant was collected for downstream readouts of secreted factors including Prostaglandin D2 (PGD2) by ELISA (Cayman Chemical PGD2 EIA kit), and cytokines/chemokines TNFa, MIP1a and Eotaxin-3 by MSD (Mesoscale V-Plex Plus proinflammatory panel 1, Plus Chemokine Panel 1).
A GPR91 knockout in LUVA cells (received from Kerafast Inc) was generated using CRISPR technology with a single guide following protocols known in the art. The guide RNA sequence used was […] (SEQ ID NO: 4). The guide RNA cut location was chromosome 3: 151,880,674.

GPR91 [9] = biological target: T1, GPR91; conditions: TREM2 expressing M2 macrophages, succinate for 48 hr
Method: Oncostatin M levels were determined by ELISA (Abcam ab215543) according to the manufacturer's instructions.
Oncostatin M levels were determined by ELISA according to the manufacturer's instructions. […] Supernatants were collected and Oncostatin M levels were measured.

dermal papilla cells [10] = test system: dermal papilla cells
Method: iPSC were differentiated and polarized to an M2 like macrophage phenotype as previously described. […] Media was collected from the treated iPSC after 48 hours of incubation, which is referred to as conditioned media. The dermal papilla from both male and female donors were plated at 5K cells/well onto a collagen coated E-Plate and analysed using the XCELLIGENCE® platform according to the manufacturer's instructions. The cells are analysed in the machine for 24 hours to determine adherence to the plate and establishment of baseline measurements. After 24 hours, the media is aspirated, and macrophage conditioned media is added to the cells for up to 117 hours and the effects of the GPR91 dependent iPSC secretome on dermal papilla proliferation are analyzed.

[11] = test system: hair matrix keratinocytes; conditions: hair follicles from healthy donors
Method: Hair follicle organ cultures ex vivo: Full length hair follicles were micro dissected from scalp skin or FUEs as above.
Quantitative evaluation of hair matrix keratinocyte proliferation and apoptosis is performed in Ki-67/TUNEL stained sections of the hair follicle. The germinative hair matrix keratinocyte proliferation is calculated as the percentage of KI-67 positive nuclei. Intra-follicular apoptosis is analyzed using TUNEL staining (TdT-mediated dUTP-biotin nick end labelling) as described previously.

[12] = test system: human iPSC derived M2 macrophages; conditions: succinate present during macrophage polarization
Method: IPSC precursor cells were differentiated into macrophages using differentiation media known in the art followed by polarisation into M1 and M2 macrophage phenotypes using LPS+IFNg and IL4+IL13 stimulation, respectively.
The TREM2 primer probe set used to determine expression levels was purchased from ThermoFisher (Hs01003898_m1). Relative expression (AU: Arbitrary units) was calculated using 2^−dCT, where dCT is calculated as CT (TREM2)−CT(Housekeeper Gene). In these experiments, the housekeeper gene used was RPLP0 (ribosomal phosphoprotein PO) (Primer Probe purchased from ThermoFisher Assay ID: He00420895_gH).

[13] = test system: JAK-STAT signaling pathway; assay: STAT3/STAT5 phosphorylation in dermal papilla cells treated with oncostatin M; assay type: cell-based, human
Method: (§2) The downstream effects of recombinant oncostatin M was assessed by evaluating signalling pathways (such as the JAK-STAT pathway previously associated with oncostatin M induced senescence in mouse [Wang 2019, PMID 30930146]) and markers associated with senescence to link specific mediators in the macrophage secretome (like oncostatin M) to disease relevant mechanisms. Dermal papilla cells in culture were treated with recombinant oncostatin M protein from BioLegend. Tofacitinib was received from MedChemExpress as a ready-made 10 mM solution and used at the indicated concentration.
Protein quantification: protein was extracted after lysis with RIPA buffer and quantified by BCA using methods known in the art. Protein was loaded onto a gel and run with NuPage MES SDS running buffer and transferred onto nitrocellulose membrane using the iBlot2 according to manufacturer's instructions and procedures known in the art. The following primary antibodies were used to assess expression of the relative proteins described: Human anti-Total STAT5 antibody, Isotype (Rabbit polyclonal IgG) from Abcam, Human anti-Phospho STAT5 antibody, Isotype (Rabbit polyclonal IgG) from Abcam, Anti-Human total STAT3 (D3Z2G) from Cell Signaling Technologies, Anti-Human pSTAT3 (Y705) (D3A7) from Cell Signaling Technologies and the control antibody, β-Actin (8H10D10) Mouse IgG2b mAb from Cell Signaling Technologies. […]

dermal papilla cells [14] = assay: FGF18 and BMP6 gene expression in dermal papilla cells (RT-qPCR); assay type: cell-based, human; conditions: oncostatin M 10 ng/ml and 100 ng/ml
Method: as §2
Gene expression: mRNA was extracted as previously described in example 1. […] The following Taqman probes were used to identify target specific mRNA transcripts: FGF18 (Assay ID: Hs00826077_m1), and BMP6 (Assay ID: Hs01099594_m1).

dermal papilla cells [15] = assay: Beta galactosidase activity (senescence) in dermal papilla; assay type: cell-based, human
Method: as §2
Beta Galactosidase Activity: A B-Galactosidase Activity Assay Kit (Fluorescence, Plate-Based) from Cell Signalling Technology #23833 was used to assess cellular senescence. The instructions were followed according to the manufacturer's instructions.

[16] = affected scalp regions, 5 nM, 24 hours
[17] = LUVA cells, compound 1 hr prior to succinate stimulation, read-out: Test compound pIC50, MIP-1a (converted)
[18] = healthy hair follicles after succinate
[19] = LUVA cells, succinate 3 hours, MSD

For `CN1CCN(Cc2ccc(-c3cccc(C(=O)Nc4ccccc4CC(=O)O)c3)cc2)CC1` [Compound 1, 2-(2-(4′-((4-methylpiperazin-1-yl)methyl)-[1,1′-biphenyl]-3-carboxamido)phenyl)acetic acid], the IC50 (GPR91 [1]) was 39.8 nM, the “percentage of hair follicles in the anagen phase” value (human hair follicles [2]) was “increases the percentage of hair follicles in the anagen phase” and the “size of the dermal papilla area, representative images” value (human hair follicles [3]; 5 uM and 50 uM) was “increased size of the dermal papilla area”. For the same molecule, the “dermal papilla area, AGA” value (human hair follicles [3]; AGA hair follicles, affected/balding region of the scalp) was “increases the dermal papilla area”, the dermal papilla area (human hair follicles [3]) was “increases the dermal papilla area” and the “versican expression in the dermal papilla” value (human hair follicles [4]) was “Increased versican expression”. For the same molecule, the “genes of apoptotic processes, cell chemotaxis and immune function” value (human hair follicles [5]; [16]) was “significant downregulation in genes that play a role in apoptotic processes, cell chemotaxis and immune function”, the “genes related to metabolic processes and biosynthesis of macromolecules” value (human hair follicles [5]; [16]) was “increase in genes related to increased metabolic processes and biosynthesis of macromolecules” and the “hair keratins gene expression” value (human hair follicles [5]; [16]) was “significant upregulation in hair keratins”. The IC50 (GPR91 [6]) was 31.6 nM, the IC50 (GPR91 [7]) was 100 nM and the “Test compound pIC50, PGD2” value (GPR91 [8]; LUVA cells, compound 1 hr prior to succinate stimulation) was 7.6. The IC50 (GPR91 [8]; [17]) was 79.4 nM.

With `O=C(CCCc1ccc2cccnc2n1)NCc1cc(-c2ccc(F)c(C(F)(F)F)c2)no1` [Compound 2, N-[{3-(3-trifluoromethyl-4-fluorophenyl)isoxazol-5-yl}methyl]-4-([1,8]naphthyridin-2-yl)butyramide] the IC50 (GPR91 [1]) was 25.1 nM, the “percentage of hair follicles in the anagen phase” value (human hair follicles [2]) was “increases the percentage of hair follicles in the anagen phase” and the IC50 (GPR91 [6]) was 1260 nM. The IC50 (GPR91 [7]) was 7940 nM, the IC50 (GPR91 [8]; [17]) was 1000 nM and the IC50 (GPR91 [8]; LUVA cells, compound 1 hr prior to succinate stimulation, read-out: Test compound pIC50, PGD2 (converted)) was 63.1 nM.

In the case of `O=C([O-])CCC(=O)[O-].[Na+].[Na+]` [Succinate, Sodium succinate], the “oncostatin M secretion” value (GPR91 [9]) is reported as “secrete higher levels of oncostatin M”, the “dermal papilla proliferation with conditioned media of succinate treated macrophages” value (dermal papilla cells [10]; 3 mM succinate, male and female donors) is reported as “inhibit dermal papilla proliferation” and the “dermal papilla proliferation, succinate by itself” value (dermal papilla cells [10]; direct treatment of dermal papilla cells) is reported as “does not induce any changes in the proliferation of dermal papilla cells”. For the same molecule, the “percentage of hair follicles in the catagen phase” value (human hair follicles [2]; GPR91 activation by succinate) was “increases the percentage of hair follicles in the catagen phase”, the “toxicity to hair follicles” value (human hair follicles [2]; at high concentrations) was “highly toxic to hair follicles” and the dermal papilla area (human hair follicles [3]) was “decreased size of the dermal papilla area”. For the same molecule, the “hair matrix keratinocyte proliferation” value [11] was “reduces hair matrix keratinocyte proliferation”, the apoptosis ([11]; TUNEL) was “increases apoptosis” and the “genes related to immune activation (cytokine and chemokine response)” value (human hair follicles [5]; [18]) was “increase in genes related to immune activation”. For the same molecule, the “genes that regulate hair follicle pathways and keratins” value (human hair follicles [5]; [18]) was “significant downregulation in genes that regulate hair follicle pathways”, the TREM2 expression [12] was “higher levels of expression of TREM2” and the “TNFa and MIP-1a response to succinate in GPR91 knockout” value (GPR91 [8]; GPR91 knockout LUVA cell line, 3 hr and 72 hour) was “lack of response”. The “TNFa and MIP-1a response to succinate” value (GPR91 [8]; LUVA cells, 3 hr and 72 hour post succinate addition) was “robust TNFa and MIP-1a response”, the “Succinate control pEC50, MIP-1a” value (GPR91 [8]; [19]) was 3.4 and the “Succinate control pEC50, TNF-α” value (GPR91 [8]; [19]) was 4.2. For the same molecule, the “Succinate control pEC50, PGD2” value (GPR91 [8]; LUVA cells, succinate 3 hours, PGD2 ELISA) was 3.5.

In the case of `C[C@@H]1CCN(C(=O)CC#N)C[C@@H]1N(C)c1ncnc2[nH]ccc12` [Tofacitinib, reference compound], the “oncostatin M induced phosphorylation of STAT3 and STAT5” value ([13]; JAK inhibitor co-treatment) is reported as “can be blocked”.

In the case of “oncostatin M: recombinant oncostatin M protein from BioLegend; cytokine shown to induce hair follicle quiescence in mice”, the “JAK-STAT signaling, phosphorylation of STAT3 and STAT5” value ([13]; recombinant oncostatin M applied to dermal papilla) is reported as “activates the JAK-STAT signaling pathway”, the “expression of BMP6” value (dermal papilla cells [14]) is reported as “downregulates expression of BMP6” and the “expression of FGF18” value (dermal papilla cells [14]) is reported as “increases the expression of FGF18”. For the same molecule, the “senescence, β-galactosidase activity” value (dermal papilla cells [15]) was “induces senescence”.
